Where only a bound is given, the exact number is not on record here.

In one data set the test system is Vero cells. Nature of the data set: Cell viability assay (CCK-8) on Vero cells. Format: cell-based, African green monkey. The conditions noted are these: 24 h; for Cytotoxicity: CCK-8, tested up to 30 µM; for inhibition at 30 µM: Chlorocebus sabaeus, CCK-8, read-out: Inhibition rate of Vero cell at 30 μM. As to the method: African green monkey kidney (Vero) cells were cultured in Dulbecco’s modified Eagle’s medium (DMEM) supplemented with 100 U/mL penicillin, 100 μg/mL streptomycin, 1% nonessential amino acids (NEAAs), 1% GlutaMAX and 10% fetal bovine serum (FBS) at 37 °C in an atmosphere of 5% CO2. […] DMEM without a drug was used as a control. After 24 h of treatment, Cell Counting Kit-8 (CCK-8, CA1210, Solarbio) was used to determine cell viability at 450 nm via a Multiskan GO instrument.

For another data set, the system named is T. gondii RH tachyzoites. The data set is described as follows: Screening for anti-T. gondii activity in vitro (plaque and qPCR assays). As to conditions: for inhibition of growth at 30 µM: Toxoplasma gondii, Vero, 24 h, RH tachyzoites in Vero cells, plaque and qPCR assays. It is filed as cell-based, Toxoplasma gondii. On the procedure:
The anti-T. gondii activity of compounds NBZ001‒037 was examined via RT-PCR. Confluent Vero cells in 6-well plates were infected with 2 × 10^5 T. gondii RH tachyzoites per well, incubated for 6 h, and then washed twice with PBS to remove extracellular tachyzoites. The cell monolayers were incubated with DMEM (1% FBS) containing various concentrations of NBZ001‒037 for 24 h. Total genomic DNA from each sample was isolated with the DNAiso reagent (Takara), and the levels of the 529-bp repeat element of T. gondii were measured by qPCR. A plaque assay was used to evaluate the activity of the compounds. The detailed experimental procedures were described in previous studies.
Background: Real-time PCR tracks product formation cycle by cycle.

As to `NC(=O)c1ccc2[nH]c3c(C(=O)c4ccccc4Br)nccc3c2c1` [NBZ013], in the data set with Vero cells, the Cytotoxicity was greater than 30.00 µM and the inhibition at 30 µM amounted to 11.2%. The same compound had an inhibition of growth at 30 µM in the data set on T. gondii RH tachyzoites of 34.5%.

For the compound `CN(C)c1cccc(NC(=O)c2ccc3[nH]c4c(C(=O)c5ccccc5Br)nccc4c3c2)c1` [NBZ031], in the data set with Vero cells, the Cytotoxicity is greater than 30.00 µM and the inhibition at 30 µM is 6.47%. In addition, in the data set on T. gondii RH tachyzoites, the inhibition of growth at 30 µM came out at 72.7%.

As for `O=C(c1ccccc1Br)c1nccc2c1[nH]c1ccccc12` [NBZ002], in the data set with Vero cells, the Cytotoxicity was greater than 30.00 µM and the inhibition at 30 µM was found to be 27.2%. For the same compound, the inhibition of growth at 30 µM with T. gondii RH tachyzoites turned out to be 42.2%.

Regarding `COc1ccc(NC(=O)c2ccc3[nH]c4c(C(=O)c5ccccc5Cl)nccc4c3c2)cc1` [NBZ028], in the data set with Vero cells, the Cytotoxicity was greater than 30.00 µM and the inhibition at 30 µM came to 19.3%.

In the case of `COc1ccccc1NC(=O)c1ccc2[nH]c3c(C(=O)c4ccccc4Cl)nccc3c2c1` [NBZ027, (2-Chlorobenzoyl)-N-(2-methoxyphenyl)-9H-pyrido[3,4-b]indole-6-carboxamide], in the data set with Vero cells, the Cytotoxicity is greater than 30.00 µM and the inhibition at 30 µM was found to be 27.9%.

In the case of `CC(=O)OC[C@H]1O[C@@H](OC(C)=O)[C@H](NC(=O)c2ccc3[nH]c4c(C(=O)c5ccccc5Br)nccc4c3c2)[C@@H](OC(C)=O)[C@@H]1OC(C)=O` [NBZ019], in the data set with Vero cells, the Cytotoxicity is greater than 30.00 µM and the inhibition at 30 µM was determined as 9.56%. The same compound showed an inhibition of growth at 30 µM with T. gondii RH tachyzoites of 35.9%.

Take `Cc1ccc2[nH]c3c(C(=O)c4ccccc4Cl)nccc3c2c1` [NBZ004]: in the data set with Vero cells, the Cytotoxicity is greater than 30.00 µM and the inhibition at 30 µM was 5.35%. The compound also gave an inhibition of growth at 30 µM in the data set on T. gondii RH tachyzoites of 43.8%.

Regarding `O=C(Nc1cccc2ccccc12)c1ccc2[nH]c3c4[n+](ccc3c2c1)-c1ccccc1C4=O` [NBZ034], in the data set on Vero cells, the inhibition at 30 µM worked out at 58.2%.

Take `O=C(Nc1ccccc1)c1ccc2[nH]c3c(C(=O)c4ccccc4Cl)nccc3c2c1` [NBZ021]: in the data set on Vero cells, the Cytotoxicity is greater than 30.00 µM and the inhibition at 30 µM is 11.4%. Moreover, the “improved efficacy over NBZ022” value in the data set on T. gondii RH tachyzoites (30 μM screening, ortho-Cl versus NBZ022) came out at 66.21%. The inhibition of growth at 30 µM in the data set on T. gondii RH tachyzoites was greater than 50%.

As to `O=C(O)c1ccc2[nH]c3c(C(=O)c4ccccc4Cl)nccc3c2c1` [NBZ009], in the data set with Vero cells, the Cytotoxicity was greater than 30.00 µM and the inhibition at 30 µM was found to be 15%. The compound further displayed an inhibition of growth at 30 µM in the data set on T. gondii RH tachyzoites of 32.1%.

Consider `O=C(c1ccccc1Cl)c1nccc2c1[nH]c1ccc(C(=O)N3CCOCC3)cc12` [NBZ016], for which, in the data set with Vero cells, the Cytotoxicity was greater than 30.00 µM and the inhibition at 30 µM amounted to 10.5%. The compound further had an inhibition of growth at 30 µM in the data set on T. gondii RH tachyzoites of 37.4%.

Take `Cc1ccc(NC(=O)c2ccc3[nH]c4c(C(=O)c5ccccc5Cl)nccc4c3c2)cc1` [NBZ025]: in the data set with Vero cells, the Cytotoxicity is greater than 30.00 µM and the inhibition at 30 µM came out at 3.96%. At 30 µM the inhibition of growth with T. gondii RH tachyzoites was 32.6%.

For the compound `Cc1ccc2[nH]c3c(C(=O)c4ccccc4Br)nccc3c2c1` [NBZ005], in the data set with Vero cells, the Cytotoxicity was greater than 30.00 µM and the inhibition at 30 µM stood at 43.9%. Further, in the data set on T. gondii RH tachyzoites, at 30 µM the inhibition of growth was 33.9%.

Turning to `CN(C)c1cccc(NC(=O)c2ccc3[nH]c4c(C(=O)c5ccccc5Cl)nccc4c3c2)c1` [NBZ030], in the data set on Vero cells, the Cytotoxicity was greater than 30.00 µM and the inhibition at 30 µM is 12.8%. In addition, 30 µM produced 69.2% inhibition of growth with T. gondii RH tachyzoites.

With `CN(C)c1ccc(NC(=O)c2ccc3[nH]c4c(C(=O)c5ccccc5Cl)nccc4c3c2)cc1` [NBZ032], in the data set with Vero cells, the Cytotoxicity was greater than 30.00 µM and the inhibition at 30 µM turned out to be 16%. At 30 µM the inhibition of growth with T. gondii RH tachyzoites was 73%.

In the case of `Cc1ccc2[nH]c3c(C(=O)c4cccc(Br)c4)nccc3c2c1` [NBZ006], in the data set with Vero cells, the Cytotoxicity is greater than 30.00 µM and the inhibition at 30 µM was found to be 13.1%. This compound also gave an inhibition of growth at 30 µM in the data set with T. gondii RH tachyzoites of 33.3%.

`COc1ccc(C(=O)c2nccc3c2[nH]c2ccc(C)cc23)cc1` [NBZ008]: in the data set on Vero cells, the Cytotoxicity was greater than 30.00 µM and the inhibition at 30 µM came out at 13.1%. The inhibition of growth at 30 µM in the data set with T. gondii RH tachyzoites amounted to 17.3%.

For `COc1ccc(NC(=O)c2ccc3[nH]c4c(C(=O)c5ccccc5Br)nccc4c3c2)cc1` [NBZ029], in the data set with Vero cells, the Cytotoxicity is greater than 30.00 µM and the inhibition at 30 µM is 27.9%. Moreover, testing at 30 µM in the data set with T. gondii RH tachyzoites gave an inhibition of growth of 30.3%.

For `Cc1ccccc1NC(=O)c1ccc2[nH]c3c(C(=O)c4ccccc4Br)nccc3c2c1` [NBZ024], in the data set with Vero cells, the Cytotoxicity was greater than 30.00 µM and the inhibition at 30 µM stood at 24.4%. This compound returned an inhibition of growth at 30 µM in the data set on T. gondii RH tachyzoites of 3.45%.

Turning to `O=C(c1ccccc1Cl)c1nccc2c1[nH]c1ccccc12` [NBZ001], in the data set on Vero cells, the Cytotoxicity is greater than 30.00 µM and the inhibition at 30 µM turned out to be 24.2%. In the data set on T. gondii RH tachyzoites, the inhibition of growth at 30 µM is 31.3%.

With `Cc1ccc2[nH]c3c(C(=O)c4ccc(Br)cc4)nccc3c2c1` [NBZ007], in the data set on Vero cells, the Cytotoxicity was greater than 30.00 µM and the inhibition at 30 µM was 13.5%. Further, in the data set on T. gondii RH tachyzoites, the inhibition of growth at 30 µM was 31.2%.

With `O=C(O)c1ccc2[nH]c3c(C(=O)c4ccccc4Br)nccc3c2c1` [NBZ010], in the data set with Vero cells, the Cytotoxicity was greater than 30.00 µM and the inhibition at 30 µM was 16.6%. The compound also had an inhibition of growth at 30 µM in the data set with T. gondii RH tachyzoites of 45.2%.

Take `CN(C)c1ccc(NC(=O)c2ccc3[nH]c4c(C(=O)c5ccccc5Br)nccc4c3c2)cc1` [NBZ033]: in the data set with Vero cells, the Cytotoxicity was greater than 30.00 µM and the inhibition at 30 µM turned out to be 11.2%. For the same compound, in the data set on T. gondii RH tachyzoites, at 30 µM the inhibition of growth was 14.3%.

Consider `Cc1ccccc1NC(=O)c1ccc2[nH]c3c4[n+](ccc3c2c1)-c1ccccc1C4=O` [NBZ036], for which, in the data set on Vero cells, the Cytotoxicity is greater than 30.00 µM and the inhibition at 30 µM came out at 9.02%. Moreover, the inhibition of growth at 30 µM in the data set with T. gondii RH tachyzoites is 42.9%.

On to `O=C(NC1CCCCC1)c1ccc2[nH]c3c(C(=O)c4ccccc4Br)nccc3c2c1` [NBZ015], for which, in the data set with Vero cells, the Cytotoxicity is greater than 30.00 µM and the inhibition at 30 µM is 3.68%. In the data set with T. gondii RH tachyzoites, this compound yielded an inhibition of growth at 30 µM of 37.1%.

Take `O=C(Nc1cccc2ccccc12)c1ccc2[nH]c3c(C(=O)c4ccccc4Br)nccc3c2c1` [NBZ020]: in the data set on Vero cells, the Cytotoxicity was greater than 30.00 µM and the inhibition at 30 µM is 8.15%. Moreover, in the data set with T. gondii RH tachyzoites, the inhibition of growth at 30 µM worked out at 7.22%.

Turning to `Cc1ccc(NC(=O)c2ccc3[nH]c4c(C(=O)c5ccccc5Br)nccc4c3c2)cc1` [NBZ026], in the data set with Vero cells, the Cytotoxicity was greater than 30.00 µM and the inhibition at 30 µM was found to be 23.6%. The same compound had an inhibition of growth at 30 µM with T. gondii RH tachyzoites of 21.1%.

With `COc1ccc(C(=O)c2nccc3c2[nH]c2ccc(C(=O)O)cc23)cc1` [NBZ012], in the data set on Vero cells, the Cytotoxicity is greater than 30.00 µM and the inhibition at 30 µM was found to be 7.66%. In the data set on T. gondii RH tachyzoites, this compound gave an inhibition of growth at 30 µM of 21.9%.

With `O=C(Nc1ccccc1)c1ccc2[nH]c3c(C(=O)c4ccccc4Br)nccc3c2c1` [NBZ022], in the data set with Vero cells, the Cytotoxicity is greater than 30.00 µM and the inhibition at 30 µM worked out at 46.8%. The compound also registered an inhibition of growth at 30 µM with T. gondii RH tachyzoites of 17.4%.

With `O=C(O)c1ccc2[nH]c3c(C(=O)c4ccc(Br)cc4)nccc3c2c1` [NBZ011], in the data set with Vero cells, the Cytotoxicity is greater than 30.00 µM and the inhibition at 30 µM worked out at 3.88%. In addition, the inhibition of growth at 30 µM in the data set with T. gondii RH tachyzoites was greater than 50%.

Take `Cc1ccc(NC(=O)c2ccc3[nH]c4c5[n+](ccc4c3c2)-c2ccccc2C5=O)cc1.[Cl-]` [NBZ037, 13-oxo-9-(p-tolylcarbamoyl)-12,13-dihydropyrido[1,2-a:3,4-b’]diindol-5-ium chloride]: in the data set with Vero cells, the Cytotoxicity is greater than 30.00 µM and the inhibition at 30 µM stood at 29.7%.

In general, inhibition refers to the share of the control response that was lost under treatment. What is called inhibition of growth is the relative decrease from the control value, in per cent.

The values are drawn from PMC12750888, “Design, synthesis, and anti-Toxoplasma gondii evaluation of β-carboline derivatives” (Parasites & Vectors, 2025).
